{
  "source": "patent US11655239B2",
  "about": "(SHANGHAI INSTITUTE OF MATERIAL MEDICA, CHINESE ACADEMY OF …, priority 2019, dated 2023)",
  "key": {"[1]": {"system": "pulmonary fibrosis induced by bleomycin in mice", "assay": "MASSON staining and α-SMA immunohistochemical staining of lung sections", "type": "in vivo, mouse", "conditions": "Effect example 5, 30, 60, 90 mg/kg oral qd 12 days", "method": "The grouping of mice is the same as that in Effect example 2.\n1) Dewaxing to water of the paraffin sections: the sections were put into xylene I (20 minutes)-xylene II (29 minutes)-absolute ethanol I (5 minutes)-absolute ethanol II (5 minutes)-75% ethanol (5 minutes), and then washed with tap water.\n2) Potassium dichromate staining: the sections were soaked in potassium dichromate overnight and washed with tap water.\n3) Iron hematoxylin staining: iron hematoxylin solution A and B were mixed in an equal ratio to form an iron hematoxylin staining solution, then the sections were put into iron hematoxylin for about 3 minutes, washed with tap water, differentiated with a solution of hydrochloric acid in ethanol, and then rinsed with tap water.\n4) Ponceau red acid fuchsin staining: the sections were put into a Ponceau red acid fuchsin solution for 5 to 10 minutes and rinsed with tap water.\n5) Phosphomolybdic acid staining: the sections were put into an aqueous phosphomolybdic acid solution for 1 to 3 minutes.\n6) Aniline blue staining: after the phosphomolybdic acid staining, the sections were not washed with water, but directly put into an aniline blue staining solution for staining for 3 to 6 minutes.\n7) Differentiation: the sections were differentiated with 1% glacial acetic acid, and dehydrated with two cylinders of absolute ethanol. […]"}, "[2]": {"system": "mouse model of BLM-induced lung injury", "assay": "Total number of cells and protein concentration in BALF", "type": "in vivo", "conditions": "mice; 30, 60, 90 mg/kg oral qd", "method": "1. The determination of the total number of cells in BALF. The collected BALF was centrifuged at 1000 rpm at 4° C. for 10 minutes, and 25× Cocktail was added to the supernatant and stored at −80° C. for protein concentration detection and subsequent cytokine determination. The cell pellet was resuspend in 50 μL of saline. The total number of cells in BALF was determined with a cell counting instrument.\n2. Determination of protein concentration. In the experiment, the BCA protein concentration determination kit (Beyotime) was used to determine the concentration of total protein in BALF. The experimental steps are as follows:\na. 0.8 ml protein standard formulation solution was added to a tube of protein standard (20 mg BSA), dissolved and mixed thoroughly to prepare a protein standard solution at 25 mg/ml. After preparation, the protein standard solution can be used immediately and stored at −20° C.\nb. An appropriate amount of 25 mg/ml of protein standard solution was taken and diluted to the target concentration of 0.5 mg/ml. Note that the protein sample and the standard should be diluted with the same solution, or the standard can be diluted with 0.9% NaCl or PBS. […]\nd. The absorbance in the wavelength range of 540-595 nm was measured or a microplate reader was used to measure A562.\ne. The protein concentration in the sample was calculated according to the sample volume used and standard curve."}, "[3]": {"system": "mouse model of BLM-induced lung injury", "assay": "Serum ALP and LDH levels", "type": "in vivo", "conditions": "mice", "from_the_text": "Alkaline phosphatase (ALP) level and lactate dehydrogenase (LDH) level. An automatic blood indicator analyzer and related kits (alkaline phosphatase assay kit and lactate dehydrogenase assay kit) were used to measure related indicators.\nSerum lactate dehydrogenase (LDH) and alkaline phosphatase (ALP) are important markers of inflammatory response of lung injury."}},
  "data": [
    {"smiles": "O=C(Nc1cccc(C(F)(F)F)c1)c1ccc(C2CC2)c(-c2ccc3nc(Nc4cnn(C5CC5)c4)ncc3c2)c1", "note": "[Compound S15, 4-cyclopropyl-3-(2-((1-cyclopropyl-1H-pyrazol-4-yl)amino)quinazolin-6-yl)-N-(3-(trifluoromethyl)phenyl)benzamide]", "values": [
      {"measurement": "expression of collagen and α-SMA (staining, immunohistochemistry)", "setting": "[1]", "result": "decrease the expression of collagen and α-SMA in a dose-dependent manner"},
      {"measurement": "pulmonary fibrosis, MASSON staining", "setting": "[1]", "result": "significantly reduce BLM-induced lung injury and inflammation, and can also reduce pulmonary fibrosis"},
      {"measurement": "protein concentration in BALF", "setting": "[2]", "result": "reduce the number of inflammatory cells and the concentration of related proteins in a dose-dependent manner"},
      {"measurement": "total number of inflammatory cells in BALF", "setting": "[2]", "result": "reduce the number of inflammatory cells and the concentration of related proteins in a dose-dependent manner"},
      {"measurement": "ALP serum level", "setting": "[3]", "result": "inhibit the level of ALP more effectively than nintedanib"},
      {"measurement": "LDH serum level", "setting": "[3]; 90 mg/kg high dose group", "result": "effectively inhibit serum LDH level"}
    ]}
  ]
}
